The results in this text go back to patent publication US20080145313A1, “Compositions and Methods for the Treatment and Prevention of Neoplastic Disorders” (Genesis Research & Development Corporation Limited, priority 2006, published 2008).

The test system of one data set is A549 cells. As to the kind of experiment: Growth inhibition of siRNA-transfected A549 cells, SYBR Green I DNA content. In kind it is cell-based, human. Conditions: 10 nM siRNA; DNA content 96 hours after transfection. The method, then:
A549 cells (human lung cancer cell line; ATCC No. CCL-185), SK-MeI-5 cells (human melanoma cell line; ATCC No. HTB-70), MCF-7 cells (human adenocarcinoma cell line; ATCC No. HTB-22), HCT-116 cells (colorectal carcinoma; ATCC CCL-247) and HCT-116 p53 null cells (derived from ATCC No. CCL-247; Bunz et al., Science 282:1497-1501, 1998) were cultured in RPMI 1640 medium with 10% v/v heat-inactivated fetal calf serum (FCS). Cells were seeded at a density of 5×10^4 cells/cm^2 in multi-well tissue culture plates. Sequences of Stealth™ siRNA duplexes (Invitrogen) targeting human ribonucleotide reductase subunit 1 (SEQ ID NO: 22) and subunit 2 (SEQ ID NO; 38) are given in SEQ ID NO: 4830-4832 (DNA), and SEQ ID NO: 5136-5138 (RNA) for RRM1, and SEQ ID NO: 5306-5308 (DNA), and SEQ ID NO: 5303-5305 (RNA) for RRM2. siRNAs were transfected at different concentrations into cells using Lipofectamine™ RNAiMAX transfection reagent (Invitrogen). Non-specific siRNA (SEQ ID NO: 4804 and 4805 (DNA), and SEQ ID NO: 5301 and 5302 (RNA)) were used as controls. The cellular DNA content was measured using a SYBR Green I-based fluorometric assay at 24, 48, 72 and 96 hours after transfection (120 hours for the MCF-7 cells), as follows. At the indicated time points following reverse transfection, cells were harvested and frozen at −80° C. overnight. Cells were thawed and cell lysis buffer (phosphate-buffered saline (PBS) containing 1% Triton X-100, pH 7) and SYBR Green I (1:10^5 V/V; Invitrogen) was added to the wells and incubated overnight in the dark at 4° C.
The following day, cell lysates were mixed thoroughly, and DNA fluorescence was measured with a Wallac Victor^2 plate reader (Turku, Finland) set at an excitation frequency of 485 nm and measuring emission at 535 nm.
To determine the duration of the knock-down effect of RRM1-targeting siRNA, A549 cells were reverse transfected with 1 or 10 nM RRM1-3 (SEQ ID NO: 4832 (DNA, and SEQ ID NO: 5138 (RNA)) or control siRNA (SEQ ID NO: 4804 (DNA), and SEQ ID NO: 5301 (RNA)), and growth followed over time. Growth inhibition was measured daily as described above for up to ten days. RRM1-3-mediated RRM1 silencing inhibited growth for at least 10 days post-transfection at both 1 and 10 nM (FIG. 11).
siRNA-mediated inhibition of cancer cell growth was determined in A549 cells as follows. A549 cells (human lung cancer cell line; ATCC No. CCL-185) were cultured in RPMI 1640 medium with 10% v/v heat-inactivated fetal calf serum. Cells were seeded at a density of 5×10^3 cells/cm^2 in multi-well tissue culture plates. Stealth™ siRNA duplexes (Invitrogen) targeting genes involved in cancer energy and metabolism pathways and listed in Table 9, were transfected at 10 nM into cells using Lipofectamine™ RNAiMAX transfection reagent (Invitrogen). Non-specific siRNA (SEQ ID NO: 4804 and 4805 (DNA), and SEQ ID NO: 5301 and 5302 (RNA)) were used as controls. The cellular DNA content was measured using a SYBR Green I-based fluorometric assay at 96 hours after transfection. The cells were harvested and frozen at −80° C. overnight. Cells were thawed and cell lysis buffer (phosphate-buffered saline (PBS) containing 1% Triton X-100, pH 7) and SYBR Green I (1:10^5 v/v; Invitrogen) was added to the wells and incubated overnight in the dark at 4° C. The following day, cell lysates were mixed thoroughly, and DNA fluorescence was measured with a Wallac Victor^2 plate reader (Turku, Finland) set at an excitation frequency of 485 nm and measuring emission at 535 nm.
Three different siRNAs were tested for each target gene. The average fluorescence units from three replicate wells, representing the amount of DNA per well, were used to determine the effect on growth inhibition. The results are given in Table 10 (energy and metabolism gene targets) and Table 11 (transporter gene targets).
siRNA-mediated RNAi was also determined on a panel of different cell lines. […]
Take “SEQ ID NO: 4848: siRNA targeting COX5A (chain 1 ATAGCAGCGAACTGACTGGATAGCC; chain 2 AUAGCAGCGAACUGACUGGAUAGCC; chemistry not given here; one strand in two spellings)”: the “Growth Inhibition in A549 cells” value is on record as “++ (inhibits by at least 75%)”. For “SEQ ID NO: 4825: siRNA targeting CPS1 (chain 1 AATACCTTCACCAAAGCAAGCCACC; chain 2 AAUACCUUCACCAAAGCAAGCCACC; chemistry not given here; one strand in two spellings)”, the “Growth Inhibition in A549 cells” value is “− (no growth inhibition with any siRNA)”.

Consider “SEQ ID NO: 4878: siRNA targeting IMPDH2 (chain 1 AAATTTGTGGATTGACCCTTTGTCC; chain 2 AAAUUUGUGGAUUGACCCUUUGUCC; Both strands are one antisense strand in DNA/RNA notation, chemistry not given here, further chemistry not given here; one strand in two spellings)”, for which the “Growth Inhibition in A549 cells” value was “− (no growth inhibition with any siRNA)”.

Regarding “SEQ ID NO: 4989: siRNA targeting TK1 (chain 1 GCGTGGCTGTCATAGGCATCGACGA; chain 2 GCGUGGCUGUCAUAGGCAUCGACGA; chemistry not given here; one strand in two spellings)”, the “Growth Inhibition in A549 cells” value is reported as “− (no growth inhibition with any siRNA)”. As to “SEQ ID NO: 4846: siRNA targeting FLAD1 (chain 1 TGATGTGTATCCTCGGTCATACAGG; chain 2 UGAUGUGUAUCCUCGGUCAUACAGG; chemistry not given here; one strand in two spellings)”, the “Growth Inhibition in A549 cells” value is recorded as “− (no growth inhibition with any siRNA)”.

Regarding “SEQ ID NO: 4999: siRNA targeting UMPS (chain 1 TGGAAACTGTTGAGGTTCTTCAGAA; chain 2 UGGAAACUGUUGAGGUUCUUCAGAA; chemistry not given here; one strand in two spellings)”, the “Growth Inhibition in A549 cells” value is recorded as “+ (inhibits by at least 50%)”.

Consider “SEQ ID NO: 5001: siRNA targeting DPYD (chain 1 GCTAGCATTATGTGCAGTTACAATA; chain 2 GCUAGCAUUAUGUGCAGUUACAAUA; chemistry not given here; one strand in two spellings)”, for which the “Growth Inhibition in A549 cells” value was “− (no growth inhibition with any siRNA)”. “SEQ ID NO: 4994: siRNA targeting TK2 (chain 1 CCTGAGACTTGTTACCAGAGGTTAA; chain 2 CCUGAGACUUGUUACCAGAGGUUAA; chemistry not given here; one strand in two spellings)”: the “Growth Inhibition in A549 cells” value is reported as “− (no growth inhibition with any siRNA)”. Turning to “SEQ ID NO: 4807: siRNA targeting ARNT (HIF-1β) (chain 1 TGCACCTGATCATAGAGTGTGCTGC; chain 2 UGCACCUGAUCAUAGAGUGUGCUGC; chemistry not given here; one strand in two spellings)”, the “Growth Inhibition in A549 cells” value is listed as “+ (inhibits by at least 50%)”. With “SEQ ID NO: 4864: siRNA targeting SLC25A6 (ANT3) (chain 1 AAATCCAGCGGGTACACGAAGCAGA; chain 2 AAAUCCAGCGGGUACACGAAGCAGA; Both strands are one antisense strand in DNA/RNA notation, chemistry not given here, further chemistry not given here; one strand in two spellings)”, the “Growth Inhibition in A549 cells” value is listed as “− (no growth inhibition with any siRNA)”. As for “SEQ ID NO: 4986: siRNA targeting DCK (chain 1 ACGATCTGTGTATAGTGACAGGTAT; chain 2 ACGAUCUGUGUAUAGUGACAGGUAU; Both strands are one antisense strand in DNA/RNA notation, chemistry not given here, further chemistry not given here; one strand in two spellings)”, the “Growth Inhibition in A549 cells” value was “− (no growth inhibition with any siRNA)”. In the case of “SEQ ID NO: 4988: siRNA targeting DCK (chain 1 GCAAGGCATTCCTCTTGAATATTTA; chain 2 GCAAGGCAUUCCUCUUGAAUAUUUA; Both strands are one antisense strand in DNA/RNA notation, chemistry not given here, further chemistry not given here; one strand in two spellings)”, the “Growth Inhibition in A549 cells” value was “− (no growth inhibition with any siRNA)”. As for “SEQ ID NO: 4812: siRNA targeting HK-II (chain 1 ATACTGGTCAACCTTCTGCACTTGG; chain 2 AUACUGGUCAACCUUCUGCACUUGG; chemistry not given here; one strand in two spellings)”, the “Growth Inhibition in A549 cells” value is “− (no growth inhibition with any siRNA)”. Regarding “SEQ ID NO: 4837: siRNA targeting DHFR (chain 1 TTTCAAAGTCTTGCATGATCCTTGT; chain 2 UUUCAAAGUCUUGCAUGAUCCUUGU; chemistry not given here; one strand in two spellings)”, the “Growth Inhibition in A549 cells” value is listed as “− (no growth inhibition with any siRNA)”.

On to “SEQ ID NO: 4816: siRNA targeting LDHA/5 (chain 1 AAATATGTTCACGTTACGCTGGACC; chain 2 AAAUAUGUUCACGUUACGCUGGACC; chemistry not given here; one strand in two spellings)”, for which the “Growth Inhibition in A549 cells” value is given as “+ (inhibits by at least 50%)”. The same measure, in the same setting: the entry for “SEQ ID NO: 4840: siRNA targeting AK1 (chain 1 TAGCCATCAATCAGGAAGCCTTTGG; chain 2 UAGCCAUCAAUCAGGAAGCCUUUGG; chemistry not given here; one strand in two spellings)” is “+ (inhibits by at least 50%)”; for “SEQ ID NO: 4880: siRNA targeting IMPDH2 (chain 1 TCCCTGTTCATATTTCTTCACTTTC; chain 2 UCCCUGUUCAUAUUUCUUCACUUUC; Both strands are one antisense strand in DNA/RNA notation, chemistry not given here, further chemistry not given here; one strand in two spellings)” it is “+ (inhibits by at least 50%)”; for “SEQ ID NO: 4811: siRNA targeting H6PD (G6PDH) (chain 1 TTATGGAGACATGTCCCTGGAGCTC; chain 2 UUAUGGAGACAUGUCCCUGGAGCUC; chemistry not given here; one strand in two spellings)” it is “− (no growth inhibition with any siRNA)”.

The same data set, now with this note: A549 cells, 10 nM siRNA, DNA content 96 hours after transfection, transporter gene targets.
As to “SEQ ID NO: 4940: siRNA targeting ATP2B2 (PMCA2) (chain 1 TTCTTGTGCATGCTGGCCTTCTTCC; chain 2 UUCUUGUGCAUGCUGGCCUUCUUCC; chemistry not given here; one strand in two spellings)”, the “Growth Inhibition in A549 cells by 10 nM siRNA” value was “++ (inhibits by at least 75%)”. As to “SEQ ID NO: 4945: siRNA targeting ATP2B3 (PMCA3) (chain 1 AATGTGTCCATGATCAAGTTCACCC; chain 2 AAUGUGUCCAUGAUCAAGUUCACCC; chemistry not given here; one strand in two spellings)”, the “Growth Inhibition in A549 cells by 10 nM siRNA” value is given as “+ (inhibits by at least 50%)”.
